# Test results published in ChEMBL document CHEMBL6153122, “Antimycobacterial Activities of the Zanthoxylum leprieurii Metabolite Adubangoamide and Non-Natural Fagaramide Analogues” (2025).
# Assays:
# Type in all cases: functional
# [1] = system: Mycobacterium tuberculosis; test: Antimycobacterial activity against drug-susceptible Mycobacterium tuberculosis H37Rv by microplate Alamar blue assay
# [2] = system: Mycobacterium tuberculosis; test: Antimycobacterial activity against drug-susceptible Mycobacterium tuberculosis H37Rv
# [3] = system: Mycobacterium tuberculosis; test: Potency index, ratio of trans-fagaramide MIC to test compound MIC for antimycobacterial activity against drug-susceptible Mycobacterium tuberculosis H37Rv
Compound,MIC [1],MIC [2],Ratio [3]
O=C(/C=C/c1ccc2c(c1)OCO2)NCc1ccccc1,167 µM,–,–
CO[C@H]1/C=C/O[C@@]2(C)Oc3c(C)c(O)c4c(O)c(c(/C=N/N5CCN(C)CC5)c(O)c4c3C2=O)NC(=O)/C(C)=C\C=C\[C@H](C)[C@H](O)[C@@H](C)[C@@H](O)[C@@H](C)[C@H](OC(C)=O)[C@@H]1C [RIFAMPIN],0.3 µM,–,–
CC(C)CNC(=O)/C=C/c1ccc2c(c1)OCO2 [FOGARAMIDE],–,32 µM,–
O=C(/C=C/c1ccc2c(c1)OCO2)NCc1ccc(N2CCC(C(F)(F)F)CC2)cc1,4.5 µM,–,6
O=C(/C=C/c1ccc2c(c1)OCO2)NCc1ccccc1Cl,100 µM,–,–
O=C(/C=C/c1ccc2c(c1)OCO2)NCc1cc(F)cc(F)c1,6.1 µM,–,6
COc1cccc(CNC(=O)/C=C/c2ccc3c(c2)OCO3)c1,200 µM,–,–
O=C(/C=C/c1ccc2c(c1)OCO2)NCc1ccc(N2CCC(c3ccc(F)cc3)CC2)cc1,17 µM,–,–
O=C(/C=C/c1ccc2c(c1)OCO2)NCc1ccc(C(F)(F)F)cc1F,21 µM,–,–
CN(C)c1ccc(CNC(=O)/C=C/c2ccc3c(c2)OCO3)cc1,6 µM,–,6
CC(C)=CCOc1ccc(/C=C/C(=O)NCC(C)C)cc1,10 µM,–,3
